Our source for the Ki and EC50 values is patent publication US8889668B2, “Oxadiazole diaryl compounds” (Merck Serono SA, priority 2007, dated 2014).

Assay [1] concerns the target T1, S1P1 (Homo sapiens (Human), UniProt P21453). Put plainly: Receptor binding assay, [33P]sphingosine 1-phosphate, membranes from CHO cells expressing S1P1. The settings on record: [33P]S1P 25 pM, SPA. The method, then:
(§1) Receptor binding assay: Membranes were prepared from CHO cells expressing S1P1 or S1P3 for use in ligand and […] binding studies. Cells were suspended in 50 mM TRIS, pH 7.4, 2 mM EDTA, 250 mM Sucrose (buffer A) and 1× Complete protease inhibitor cocktail (Roche), and disrupted at 4° C. by nitrogen decompression using a cell disruption bomb (Parr Instrument). Following centrifugation at 1000 RPM for 10 min at 4° C., the supernatant was suspended in buffer A and centrifuged again at 19000 RPM for 60 min at 4° C. The pellet was then suspended in 10 mM HEPES, pH 7.4, 1 mM EDTA, 250 mM Sucrose (Buffer B), and 1× Complete EDTA-free protease inhibitor cocktail and homogenized using a potter. Membranes were flash frozen in liquid nitrogen and stored at −80° C. [33P]sphingosine 1-phosphate (3000 Ci/mmol; American Radiolabeled Chemicals, Inc.) was added to test compounds in DMSO. Membranes and WGA SPA beads (GE Healthcare) were added to give a final volume of 100 μl in 96-well plates with assay concentrations of 25 pM or 10 pM [33P]sphingosine 1-phosphate (respectively for S1P1 or S1P3), 50 mM HEPES, pH 7.5, 5 mM MgCl2, 100 mM NaCl, 0.4% fatty acid-free BSA, 1-5 μg/well of proteins and 100 μg/well of WGA SPA beads. Binding was performed for 60 min at room temperature on a shaker and bound radioactivity was measured on a PerkinElmer 1450 MicroBeta counter. Specific binding was calculated by subtracting remaining radioactivity in the presence of 1000-fold excess of unlabeled S1P. Binding data were analyzed using the GraphPad Prism program.

Assay [2] deals with T1, S1P1. In words: 35S-GTPγS binding, membranes from CHO cells expressing S1P1. It counts as biochemical. Particulars: 60 min 30° C., read-out: S1P1 GTPgS EC50. On the technique in general: Binding of GTPγS marks nucleotide exchange on a G protein.
Another assay deals with S1P3 (Homo sapiens (Human), UniProt Q99500). In words: 35S-GTPγS binding, membranes from CHO cells expressing S1P3. The format is biochemical. The settings on record: 60 min 30° C., read-out: S1P3 GTPgs EC50. As to the method: as §1
Measurements of ^35S-GTPγS Binding: Membranes (1 to 10 μg protein) prepared as described above, were incubated in 96-well Scintiplates (PerkinElmer) with test compounds diluted in DMSO, in 180 μl of 20 mM HEPES, pH 7.4, 10 mM MgCl2, 2 μg/well Saponin, 0.2% fatty acid free BSA (Assay buffer), 140 mM NaCl and 1.7 μM GDP. The assay was initiated with the addition of 20 μl of 1.5 nM [35S]-GTPγS (1100 Ci/mmol; GE Healthcare) in assay buffer. After 60 min incubation at 30° C. on a shaker, plates were centrifuged for 10 min at 2000 RPM. Supernatant was discarded and membrane bound radioactivity was measured on a PerkinElmer 1450 MicroBeta counter. Triplicate samples were averaged and expressed as % response relative to S1P activation in absence of compound (n=2).

T1 sequence (P21453 whole entry, species assumed): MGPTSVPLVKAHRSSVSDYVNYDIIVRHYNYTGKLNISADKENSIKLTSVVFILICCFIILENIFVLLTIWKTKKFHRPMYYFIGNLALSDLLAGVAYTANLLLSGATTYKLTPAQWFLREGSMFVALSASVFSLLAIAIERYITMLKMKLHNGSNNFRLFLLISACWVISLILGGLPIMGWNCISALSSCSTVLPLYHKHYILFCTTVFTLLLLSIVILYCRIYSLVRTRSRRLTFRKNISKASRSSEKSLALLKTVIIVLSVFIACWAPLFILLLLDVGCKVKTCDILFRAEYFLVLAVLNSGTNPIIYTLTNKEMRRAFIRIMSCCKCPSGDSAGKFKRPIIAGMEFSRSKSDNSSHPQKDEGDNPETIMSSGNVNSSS
Chain of S1P3 (Q99500 whole entry, species assumed): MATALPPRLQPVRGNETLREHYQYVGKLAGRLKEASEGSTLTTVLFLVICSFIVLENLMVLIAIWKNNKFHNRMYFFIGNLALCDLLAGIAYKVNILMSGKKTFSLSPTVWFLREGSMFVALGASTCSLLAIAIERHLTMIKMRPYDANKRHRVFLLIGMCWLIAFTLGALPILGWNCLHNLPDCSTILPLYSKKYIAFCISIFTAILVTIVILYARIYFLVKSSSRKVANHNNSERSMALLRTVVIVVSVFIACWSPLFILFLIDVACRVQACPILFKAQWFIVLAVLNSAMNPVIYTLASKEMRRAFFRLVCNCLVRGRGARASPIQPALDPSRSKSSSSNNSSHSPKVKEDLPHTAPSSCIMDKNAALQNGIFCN

What is called Ki is a dissociation constant, usually derived from enzyme kinetics or from competition with a known ligand. Lower therefore signals higher affinity. The EC50 is the concentration needed to bring the measured effect to its halfway point. As for `COc1ccccc1-c1noc(-c2ccc(-c3ccccc3C)c([N+](=O)[O-])c2)n1` [Compound I26, 3-(2-methoxyphenyl)-5-(2′-methyl-2-nitrobiphenyl-4-yl)-1,2,4-oxadiazole], affinity at S1P1 [1] was put at a Ki of 2 nM. For the same molecule, the EC50 at S1P1 [2] stood at 9 nM; at S1P3, 5050 nM.
For the molecule `COc1ccccc1-c1noc(-c2ccc(C3CCCCC3)cc2)n1` [Compound I27, 5-(4-cyclohexylphenyl)-3-(2-methoxyphenyl)-1,2,4-oxadiazole], the Ki at S1P1 [1] was 20 nM. Moreover, the 50% effective concentration (EC50) at S1P1 [2] is 66 nM; on S1P3 it was greater than 30000 nM.
Taken in the same sequence, the figures for `COc1ccccc1-c1noc(-c2ccc(CC(C)C)cc2)n1` [Compound I28, 5-(4-isobutylphenyl)-3-(2-methoxyphenyl)-1,2,4-oxadiazole] were 91 nM, 162 nM and greater than 30000 nM.
`COc1ccc(F)cc1-c1noc(-c2ccc(N3CCCCC3C)c([N+](=O)[O-])c2)n1` (stereo not drawn) [Compound I32, 1-{4-[3-(5-fluoro-2-methoxyphenyl)-1,2,4-oxadiazol-5-yl]-2-nitrophenyl}-2-methylpiperidine]: the affinity at S1P1 [1], expressed as Ki, was 1 nM. The EC50 on S1P1 [2] came to 2 nM; at S1P3 it was 1700 nM.
For `CC1CCCCN1c1ccc(-c2nc(-c3ccccc3OC(F)(F)F)no2)cc1C(F)(F)F` (stereo not drawn) [Compound I34, 2-methyl-1-[4-{3-[2-(trifluoromethoxy)phenyl]-1,2,4-oxadiazol-5-yl}-2-(trifluoromethyl)phenyl]piperidine], in that order: 5 nM, 6 nM and greater than 20000 nM.
For `COc1ccccc1-c1noc(-c2ccc(N3CCCCC3C)c(C(F)(F)F)c2)n1` (stereo not drawn) [Compound I35, 1-[4-[3-(2-methoxyphenyl)-1,2,4-oxadiazol-5-yl]-2-(trifluoromethyl)phenyl]-2-methylpiperidine], in that order: 3 nM, 2 nM and 650 nM.
The molecule `Cc1cc(-c2nc(-c3ccccc3OC(F)(F)F)no2)ccc1-c1cscc1C` [Compound I44, 5-[3-methyl-4-(4-methyl-3-thienyl)phenyl]-3-[2-(trifluoromethoxy)phenyl]-1,2,4-oxadiazole] had a Ki on S1P1 [1] of 5 nM. The EC50 at S1P1 [2] is 3 nM; on S1P3 it was greater than 20000 nM.
At S1P1 [1], `COc1ccccc1-c1noc(-c2ccc(-c3cscc3C)c(OC)c2)n1` [Compound I48, 5-[3-methoxy-4-(4-methyl-3-thienyl)phenyl]-3-(2-methoxyphenyl)-1,2,4-oxadiazole] yielded a Ki of 4 nM. Moreover, the EC50 on S1P1 [2] amounted to 5 nM; at S1P3 it was 2180 nM.
The molecule `Cc1ccccc1-c1ccc(-c2nc(-c3ccccc3OC(F)(F)F)no2)cc1C(F)(F)F` [Compound I55, 5-[2′-methyl-2-(trifluoromethyl)biphenyl-4-yl]-3-[2-(trifluoromethoxy)phenyl]-1,2,4-oxadiazole] had an inhibitory constant (Ki) on S1P1 [1] of 8 nM. For the same molecule, the EC50 on S1P1 [2] was 2 nM; on S1P3 it was greater than 30000 nM.
Molecule `COc1ccccc1-c1noc(-c2ccc(-c3cscc3C)c(C(F)(F)F)c2)n1` [Compound I57, 3-(2-methoxyphenyl)-5-[4-(4-methyl-3-thienyl)-3-(trifluoromethyl)phenyl]-1,2,4-oxadiazole] returned an inhibition constant Ki on S1P1 [1] of 2 nM. Besides, the values for the EC50 at S1P1 [2] and on S1P3 were 1 nM and greater than 20000 nM, respectively.
At S1P1 [1], `COc1ccc(F)cc1-c1noc(-c2ccc(N3CCCCC3)c(C(F)(F)F)c2)n1` [Compound I60, 1-[4-[3-(5-fluoro-2-methoxyphenyl)-1,2,4-oxadiazol-5-yl]-2-(trifluoromethyl)phenyl]piperidine] came in with a Ki of 1 nM. Further, the 50% effective concentration (EC50) amounted to 2 nM at S1P1 [2] and 617 nM at S1P3.
Taken in the same sequence, the figures for `COc1ccc(F)cc1-c1noc(-c2ccc(N3CCCCC3C)c(C(F)(F)F)c2)n1` (stereo not drawn) [Compound I63, 1-[4-[3-(5-fluoro-2-methoxyphenyl)-1,2,4-oxadiazol-5-yl]-2-(trifluoromethyl)phenyl]-2-methylpiperidine] were 3 nM, 1 nM and 125 nM.
`COc1ccc(F)cc1-c1noc(-c2ccc(N3CCCCC3C)c(C#N)c2)n1` (stereo not drawn) [Compound I71, 5-[3-(5-fluoro-2-methoxyphenyl)-1,2,4-oxadiazol-5-yl]-2-(2-methylpiperidin-1-yl)benzonitrile]: the Ki at S1P1 [1] amounted to 4 nM. The EC50 at S1P1 [2] was found to be 1 nM; on S1P3, 74 nM.
For `COc1ccc(F)cc1-c1noc(-c2ccc(N3CCCCC3C)c(NS(C)(=O)=O)c2)n1` (stereo not drawn) [Compound I72, N-[5-[3-(5-fluoro-2-methoxyphenyl)-1,2,4-oxadiazol-5-yl]-2-(2-methylpiperidin-1-yl)phenyl]methanesulfonamide], in that order: 46 nM, 8 nM and greater than 20000 nM.
With `COc1ccc(F)cc1-c1noc(-c2ccc(-c3ccccc3C)c(CO)c2)n1` [Compound I77, {4-[3-(5-fluoro-2-methoxyphenyl)-1,2,4-oxadiazol-5-yl]-2′-methylbiphenyl-2-yl}methanol], the inhibition constant (Ki) at S1P1 [1] was determined as 53 nM. Further, the concentration giving a half-maximal response (EC50) was found to be 65 nM on S1P1 [2] and 5610 nM at S1P3.
For `COc1ccc(F)cc1-c1noc(-c2ccc(-c3ccccc3C)c(CN(C)C)c2)n1` [Compound I78, 1-{4-[3-(5-fluoro-2-methoxyphenyl)-1,2,4-oxadiazol-5-yl]-2′-methylbiphenyl-2-yl}-N,N-dimethylmethanamine], on S1P1 [1], affinity was put at a Ki of 4 nM. For the same molecule, the 50% effective concentration (EC50) at S1P1 [2] turned out to be 2 nM; on S1P3, 92 nM.
